Reference: patent publication US20230293560A1, “METHOD FOR MODULATING THE BLADDER MICROBIOME TO IMPROVE BLADDER HEALTH” (Kimberly-Clark Worldwide, Inc., priority 2020, published 2023)
Where “and” joins values, the source holds several entries; their conditions need not be identical. Equal values may be shown once.

System: S. anginosus, KC18-1131-3B, Bladder (Sa-2)
Format: cell-based
Settings: Table 6, prebiotic 2%, one line per replicate
Experimental: Further testing was conducted to put the prebiotic compounds in competition assay testing, as further described in the test methods section herein. In the competition assay testing, each competition involved testing a single prebiotic compound with the commensal bacteria species of L. crispatus, KC18-1173-1, Bladder (“Lc-3”—Table 2) against the pathogenic bacterial species of S. anginosus, KC18-1131-3B, Bladder (“Sa-2”—Table 2).
• 1. An in house bacterial agar was created based on MRS agar (Kaplan and Hutkins, 2000) where the glucose is substituted for the prebiotic to be tested (either dextran MW ˜6,000, alpha-cyclodextrin, glucomannan, or pectin), bromocresol purple was included as a pH indicator. • 2. Bacteria were enumerated on each agar and color changes were recorded. Method for Competition Assay (Modified from “In Vitro Evaluation of Nutrients that Selectively Confer a Competitive Advantage to Lactobacilli” Vongsa et al, Beneficial Microbes 2016) • 1. Create 2% w/v stock of prebiotic or positive control (glucose/dextrose) as described above. • 2. From a freezer stock subculture the bacteria twice into De Man, Rogosa and Sharpe (MRS) broth (BD Difco, Becton Dickinson, Franklin Lakes, NJ), 37° C., stationary, anaerobic, overnight. • 3. From the last subculture, plate onto an MRS agar plate for L. crispatus KC18-1173-1 or blood agar for S. anginosus KC18-1131-3B, grow 37° C., stationary, anaerobic, overnight. • 4. Create a bacterial suspension by using a sterile tipped swab to transfer colonies of bacteria into a PBS suspension blank to a 2 MacFarland for both species. • 5. Enumerate the starting culture. • 6. Add 9.8 mL of prebiotic media into a 15 mL conical tube. • 7. Add 100 μL of the diluted bacteria to the media, incubate at 37° C., anaerobic, 48 hours. • 8. Harvest 100 μL from the tube containing the prebiotic and plate onto MRS agar and tryptic soy agar (TSA). • 9. Enumerate the bacteria on the MRS agar (both the L. crispatus and the S. anginosus). Small colonies are counted as S. anginosus and large colonies are counted as L. crispatus. • 10. Enumerate the bacteria on the TSA plate. […] Growth of the bacteria in the negative control (CHL media without prebiotic) was subtracted from the growth in the presence of the prebiotic or formulation.

CO[C@H]1O[C@H](CO)[C@@H](O)[C@H](O)[C@H]1O [Alpha-Methyl-D-Glucoside]
Sa-2 MRS Δ (change vs start, background growth in CHL media subtracted, MRS agar): 0.45 Log CFU/mL and 0.55 Log CFU/mL
Sa-2 TSA Δ (change vs start, background growth in CHL media subtracted, TSA): 0.62 Log CFU/mL and 0.41 Log CFU/mL
Sa-2 MRS end (competition Sa-2 vs Lc-3, 48 hours, anaerobic, enumerated on MRS agar): 7.15 Log CFU/mL and 7.40 Log CFU/mL
Sa-2 TSA end (competition Sa-2 vs Lc-3, 48 hours, enumerated on TSA): 7.47 Log CFU/mL and 7.54 Log CFU/mL
